Measured values reported in ChEMBL document CHEMBL4145603, “Iridoids from the Roots of Patrinia scabra and Their Inhibitory Potential on LPS-Induced Nitric Oxide Production” (J Nat Prod, 2018).

Each compound was assayed on RAW264.7 (assay: Inhibition of LPS-stimulated nitric oxide production in […] RAW264.7 cells after 24 hrs by Griess assay). Settings: Mus musculus.
Format: functional, cell-based

Compound | inhibition
COc1cc([C@@H](O)[C@@H](COC(=O)CC(C)C)Oc2c(O)cc(/C=C/COC(=O)CC(C)C)cc2OC)cc(OC)c1O | Dose-dependent effect
CC(C)CC(=O)OCC1=COC=C2C1=CC(=O)[C@]2(O)COC(=O)CC(C)C | Dose-dependent effect
CC(C)CC(=O)OCC1=CO[C@H](OC(=O)CC(C)C)[C@H]2C1(O)C[C@@H](O)[C@]2(O)COC(=O)CC(C)C (some centres undefined) | Dose-dependent effect

Same assay, conditions: Mus musculus, RAW264.7, 24 h

Compound | IC50
CC(C)CC(=O)OCC1=COC=C2C1=CC(=O)[C@]2(O)CCl | 27.6 µM
COc1cc([C@@H](O)[C@@H](COC(=O)CC(C)C)Oc2c(O)cc(/C=C/COC(=O)CC(C)C)cc2OC)cc(OC)c1O | 17.8 µM
CC(C)CC(=O)OCC1=COC=C2C1=CC(=O)[C@]2(O)COC(=O)CC(C)C | 17.1 µM

Continued, values first:

IC50 | Compound
26 µM | CC(C)CC(=O)OCC1=CO[C@H](OC(=O)CC(C)C)[C@@H]2[C@@](O)(COC(=O)CC(C)C)[C@H](O)C[C@]12O
14.7 µM | CC(C)CC(=O)OCC1=CO[C@H](OC(=O)CC(C)C)[C@H]2C1(O)C[C@@H](O)[C@]2(O)COC(=O)CC(C)C (some centres undefined)
> 50 µM | CC(C)CC(=O)OCC1=CO[C@@H](OC(=O)CC(C)C)[C@H]2C1=C[C@H](O)[C@]2(O)CO
